Assay results from ChEMBL document CHEMBL6096668, “Design and functional studies of xylene-based cyclic mimetics of SOCS1 protein” (Eur J Med Chem, 2025).
Numbered stars: 1 amine (or outer) side, 2 acyl side, 3 side chain; on linkers, the order of the positions; unused ones are H or OH. Bridge positions count the residues as written; N and C are the ends. Square brackets hold non-standard residues; d marks the D form. Peptide text beside a SMILES is read from it. * marks the point of attachment. 1Nal = N[C@@H](Cc1cccc2ccccc12)C(=O)O; TBMB = c1c(C[*:1])cc(C[*:3])cc1C[*:2]; Acm = CC(=O)NC*

Columns and labels:
[1] = target: T1, Tyrosine-protein kinase JAK2 (Homo sapiens, UniProt O60674); test: Binding affinity to his-tagged JAK2 (826 to 1132 residues) (unknown origin) assessed as dissociation constant incubated for 30 mins by MST analysis
T1 sequence (O60674 whole entry, the tested form may be a part): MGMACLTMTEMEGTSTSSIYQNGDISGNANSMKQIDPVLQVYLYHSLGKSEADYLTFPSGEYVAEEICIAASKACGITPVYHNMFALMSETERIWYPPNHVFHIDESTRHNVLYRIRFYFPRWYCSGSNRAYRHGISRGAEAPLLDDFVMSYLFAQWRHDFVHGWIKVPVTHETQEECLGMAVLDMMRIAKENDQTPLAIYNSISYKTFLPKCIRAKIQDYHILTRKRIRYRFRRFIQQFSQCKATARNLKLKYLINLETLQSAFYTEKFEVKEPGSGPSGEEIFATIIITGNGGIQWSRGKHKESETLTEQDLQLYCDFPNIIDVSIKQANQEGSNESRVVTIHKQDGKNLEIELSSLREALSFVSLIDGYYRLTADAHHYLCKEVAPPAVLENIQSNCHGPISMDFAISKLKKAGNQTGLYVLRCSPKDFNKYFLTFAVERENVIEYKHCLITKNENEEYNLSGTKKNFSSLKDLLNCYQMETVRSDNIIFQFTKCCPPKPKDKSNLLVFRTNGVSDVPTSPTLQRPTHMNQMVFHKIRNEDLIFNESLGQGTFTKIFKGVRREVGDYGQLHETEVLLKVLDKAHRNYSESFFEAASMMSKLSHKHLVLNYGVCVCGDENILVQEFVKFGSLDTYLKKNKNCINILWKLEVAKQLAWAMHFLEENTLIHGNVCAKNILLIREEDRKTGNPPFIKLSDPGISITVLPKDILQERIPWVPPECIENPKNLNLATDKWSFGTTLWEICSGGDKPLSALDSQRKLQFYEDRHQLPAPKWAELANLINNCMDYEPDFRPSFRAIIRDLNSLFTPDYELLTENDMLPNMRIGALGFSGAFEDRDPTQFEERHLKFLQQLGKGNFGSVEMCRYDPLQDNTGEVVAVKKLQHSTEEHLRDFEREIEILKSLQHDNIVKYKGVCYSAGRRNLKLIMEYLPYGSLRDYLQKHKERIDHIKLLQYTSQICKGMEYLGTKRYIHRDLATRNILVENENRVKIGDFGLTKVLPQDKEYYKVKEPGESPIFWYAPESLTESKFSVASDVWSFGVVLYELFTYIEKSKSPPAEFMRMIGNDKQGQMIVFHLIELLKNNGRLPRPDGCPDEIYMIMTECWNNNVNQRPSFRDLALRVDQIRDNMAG

[2] = target: T1, Tyrosine-protein kinase JAK2; test: Inhibition of JAK2 (unknown origin) using srctide as substrate preincubated with compound for 1 hr followed by substrate addition and measured after 15 mins in presence of ATP by LC-MS analysis
[3] = Stability of the compound in fetal bovine serum measured after 30 h by RP-HPLC analysis; conditions: cattle

Kd [1]	IC50 [2]	Stability [3]	SMILES
~90 µM	–	–	COc1cc(/C=C/C(=O)CC(=O)/C=C/c2ccc(O)c(OC)c2)ccc1O [CURCUMIN]
6.8 µM	2.2 µM	–	CC(=O)NCSC[C@@H]1NC(=O)[C@H]([C@@H](C)O)NC(=O)[C@H](NC(C)=O)CSCc2cccc(c2)CSC[C@@H](C(=O)N[C@@H](Cc2cnc[nH]2)C(N)=O)NC(=O)[C@H](CCCNC(=N)N)NC(=O)[C@H](Cc2cccc3ccccc23)NC(=O)[C@H]([C@@H](C)O)NC(=O)[C@H](CCC(N)=O)NC(=O)[C@H](CCCNC(=N)N)NC1=O
130 µM	100 µM	–	CC(=O)NCSC[C@@H]1NC(=O)[C@H]([C@@H](C)O)NC(=O)[C@@H](NC(C)=O)CSCc2cc3cc(c2)CSC[C@H](NC(=O)[C@H](CCCNC(=N)N)NC1=O)C(=O)N[C@@H]([C@@H](C)O)C(=O)N[C@@H](Cc1cccc2ccccc12)C(=O)N[C@@H](CCCNC(=N)N)C(=O)N[C@H](C(=O)N[C@@H](Cc1cnc[nH]1)C(N)=O)CSC3 (Ac-CTC(Acm)RCT[1Nal]RCH-NH2; linker 1-5-9 via TBMB)
–	–	Stable	CC(=O)NCSC[C@@H]1NC(=O)[C@H]([C@@H](C)O)NC(=O)[C@@H](NC(C)=O)CC(=O)NCCCC[C@@H](C(=O)N[C@@H](Cc2cnc[nH]2)C(N)=O)NC(=O)[C@H](CCCNC(=N)N)NC(=O)[C@H](Cc2cccc3ccccc23)NC(=O)[C@H]([C@@H](C)O)NC(=O)[C@H](CCC(N)=O)NC(=O)[C@H](CCCNC(=N)N)NC1=O (Ac-DTC(Acm)RQT[1Nal]RKH-NH2; lactam 1-9)
